Results as given in patent US20050255491A1, “Small molecule and peptide arrays and uses thereof” (priority 2003, published 2005).

Assays:
[1] = tested on: alkaline protease from Bacillus sp. PS719; details: cited from earlier work
[2] = tested on: obese (NZO×NON)F1 male mice; details: chronic treatment; cited from earlier work
[3] = biological target: antibodies specific for the respective peptide antigens; details: antibody against the listed peptide; value taken from the reference; read-out: Affinity KD; cited from earlier work
[4] = tested on: antibody P1 (specific for PSA-derived PET EPAELTDA); assay: Peptide competition assay, antibody P1; assay type: binding; details: for fold higher concentration at which nearest neighbor is still ineffective: relative to antigen PET EPAELTDA
Protocol: (§1) In certain embodiments of the invention, a peptide competition assay may be used to determine the binding specificity of a capture agent towards its target PET, as compared to several nearest neighbor sequences of the PET. The same protocol can be adapted for small molecule-based competition assay
(§2) For a typical peptide competition assay, the following illustrative protocol may be used: 1 μg/100 μl/well of each target peptide is coated in Maxisorb Plates with coating buffer (carbonate buffer, pH 9.6) overnight at 4° C., or 1 hour at room temperature. The plates are washed with 300 μl of PBST (1×PBS/0.05% Tween 20) for 4 times. Then 300 μl of blocking buffer (2% BSA/PBST) is added and the plates are incubated for 1 hour at room temperature. Following blocking, the plates are washed with 300 μl of PBST for 4 times.
Synthesized competition peptides are dissolved in water to a final concentration of 2 mM solution. Serial dilution of competition peptides (for example, from 100 pM to 100 μM) in digested human serum are prepared. These competition peptides at particular concentrations are then mixed with equal amounts of primary antibodies against the target peptide. These mixtures are then added to plate wells with immobilized target peptides respectively. Binding is allowed to proceed for 2 hours at room temperature. The plates are washed with 300 μl of PBST for 4 times. Then labeled secondary antibody against the primary antibody, such as 100 μl of 5,000× diluted anti-rabbit-IgG-HRP, is added and incubated for 1 more hour at room temperature. The plates are washed with 300 μl of PBST for 6 times. For detection of the HRP label activity, add 100 μl of TMB substrate (for HRP) and incubate for 15 minutes at room temperature. Add 100 μl of stop buffer (2N HCL) and read the plates at OD450. A peptide competition curve is plotted using the ABS at OD450 versus the competitor peptide concentrations. […]

[5] = tested on: antibody C1 (specific for CRP-derived PET YEVQGEVF); assay: Peptide competition assay, antibody C1; assay type: binding; details: competitor peptide against immobilized PET, neighbors completely ineffective even at the stated concentration, read-out: half-maximum effective peptide concentration
Protocol: as §1, §2
Synthesized competition peptides are dissolved in water to a final concentration of 2 mM solution. Serial dilution of competition peptides (for example, from 100 pM to 100 μM) in digested human serum are prepared. These competition peptides at particular concentrations are then mixed with equal amounts of primary antibodies against the target peptide. These mixtures are then added to plate wells with immobilized target peptides respectively. Binding is allowed to proceed for 2 hours at room temperature. […] Add 100 μl of stop buffer (2N HCL) and read the plates at OD450. […]

[6] = biological target: antibody C2, specific for the CRP PET sequence GYSIFSYA; assay: peptide competition ELISA: soluble peptide series against the same immobilized peptide for a fixed concentration of antibody, in 10 mM digested serum proteins, HRP secondary antibody, ABS 450
[7] = biological target: PET-specific antibody used in the peptide competition assay for the Troponin T peptide …; assay: peptide competition ELISA with immobilized peptide, in 10mM digested serum proteins, ABS 450
[8] = biological target: antibody C1, specific for the CRP-derived 8-mer PET sequence YEVQGEVF; assay: peptide competition ELISA: soluble peptide series against the same immobilized peptide for a fixed concentration of antibody, in 10 mM digested serum proteins, HRP secondary antibody, ABS 450
[9] = biological target: antibody C1, specific for the CRP-derived 8-mer PET sequence YEVQGEVF; assay: peptide competition assay, soluble PET against immobilized PET for antibody C1
[10] = biological target: antibody used in the PET-based peptide competition assay for the Survivin peptide …; assay: Survivin Peptide Competitive Assay, ABS 450
[11] = liberation of p-nitroaniline from the substrate

Molecule: O=c1oc(Cl)c(Cl)c2ccccc12 [DCI, 3,4-dichloroisocoumarin]
- inhibition of protease activity [1]: completely inhibited

Molecule: O=S(=O)(F)Cc1ccccc1 [PMSF, phenylmethylsulfonyl fluoride]
- inhibition of protease activity [1]: completely inhibited

Molecule: Cc1ccc(S(=O)(=O)N[C@@H](CCCCN)C(=O)CCl)cc1 [TLCK, N-α-p-tosyl-L-lysine chloromethyl ketone]
- inhibition of protease activity [1]: completely inhibited

Molecule: CN(CCOc1ccc(CC2SC(=O)NC2=O)cc1)c1ccccn1 (stereo not drawn) [rosiglitazone]
- effect on hepatic steatosis [2]: markedly exacerbated

Molecule: CRGTGSYNRSSFESSSG
- Kd [3]: 2.8 nM

Molecule: DPTQLTDA [nearest-neighbor 8-mer of EPAELTDA found in the human proteome]
- fold higher concentration at which nearest neighbor is still ineffective [4]: 25,000 fold

Molecule: EPAELTDA
- IC50 ([4]; competitor peptide against immobilized PET, read-out: half-maximum effective peptide concentration): ~40 nM

Molecule: EPVELTSA [nearest-neighbor 8-mer of EPAELTDA found in the human proteome]
- fold higher concentration at which nearest neighbor is still ineffective [4]: 25,000 fold

Molecule: GATPEDLNQKLAGN
- Kd [3]: 1.4 nM

Molecule: HHHHH [HHHHH (HIS tag), 5-aa HIS tag peptide]
- Kd [3]: 25 nM

Molecule: MDYKAFDN (FLAG tag) [8-aa FLAG tag peptide]
- Kd [3]: 2.3 nM

Molecule: N-carbobenzoxy (CBZ)-L-arginine-p-nitroanilide
- Km [1, 11]: 600 µM
- Vmax [1, 11]: 1.0 μmol min^−1 mg protein^−1

Molecule: NYRAYATEPHAKKKS [15-aa peptide antigen of a literature antibody (EJB 267:1819, 2000)]
- Kd [3]: 0.5 nM

Molecule: PQSDPSVEPPLS
- Kd [3]: 16 nM

Molecule: RYDIEAKVTK [10-aa peptide antigen of a literature antibody (JI 169:6992, 2002)]
- Kd [3]: 3.5 nM

Molecule: YDVPDYAS (HA tag)
- Kd [3]: 2 nM

Molecule: YEVQGEVF
- IC50 [5]: ~1000 nM

B1: CRP PET peptide GYSIFSYA (peptide)
peptide: GYSIFSYA
- Detection Limit [6]: 1 nM
- IC50 (read off the curve) [6]: 1000 nM

B2: Troponin T tryptic PET-peptide … (peptide)
peptide: SFMPNLVPPK
- IC50 (read off the curve) [7]: 20 nM

B3: CRP-derived 8-mer PET peptide YEVQGEVF (peptide)
peptide: YEVQGEVF
- Detection Limit [8]: 100 pM
- IC50 [9]: 1000 nM

B4: Survivin peptide … (peptide)
peptide: MGAPTLPPAWQPF
- IC50 (read off the curve) [10]: 20 nM
